In the NIST ThermoML archive (doi:10.1021/je050116g):
Numbers after ± are expanded uncertainties.

How the values were obtained:
[1] = 298.15 K; 101.33 kPa; Liquid
[2] = xn = mol fraction of the nth substance listed; conditions: 298.15 K, 101.33 kPa, Liquid
[3] = relative permittivity at various frequencies (dimensionless); xn = mol fraction of the nth substance listed; conditions: 298.15 K, 101.33 kPa, Liquid, Frequency=0.03 MHz, Parallel plate capacitor

CCCCO [butan-1-ol]
Conditions	mass density [kg/m3]
[1]	805.767 ± 0.29

CCCCCCCCCCO [decan-1-ol]
Conditions	mass density [kg/m3]
[1]	826.421 ± 0.27

CCCCCCCCCCO [decan-1-ol] + CCCCCCCCCCCC
Conditions	mass density, [2] [kg/m3]	relative permittivity, [3]
x1 = 0.001264	745.351 ± 0.26	–
x1 = 0.001971	–	2.00974 ± 0.00037
x1 = 0.002235	745.401 ± 0.26	–
x1 = 0.002902	–	2.01098 ± 0.00037
x1 = 0.003662	–	2.01199 ± 0.00037
x1 = 0.004525	–	2.01314 ± 0.00037
x1 = 0.00462	745.527 ± 0.26	–
x1 = 0.005614	–	2.01459 ± 0.00037
x1 = 0.006788	–	2.01613 ± 0.00036
x1 = 0.007983	–	2.01764 ± 0.00035
x1 = 0.009268	–	2.0192 ± 0.00033
x1 = 0.01089	–	2.02107 ± 0.00032
x1 = 0.01183	745.934 ± 0.26	–
x1 = 0.01283	–	2.02321 ± 0.0003
x1 = 0.01445	–	2.02492 ± 0.00029
x1 = 0.01654	–	2.027 ± 0.00027
x1 = 0.01864	–	2.029 ± 0.00026
x1 = 0.02121	–	2.03137 ± 0.00025
x1 = 0.02459	–	2.03426 ± 0.00024
x1 = 0.02958	–	2.03864 ± 0.00024
x1 = 0.0323	747.221 ± 0.26	–
x1 = 0.03739	–	2.04514 ± 0.00023
x1 = 0.04685	–	2.05286 ± 0.00023
x1 = 0.05669	748.861 ± 0.26	2.06088 ± 0.00023
x1 = 0.06704	–	2.06945 ± 0.00023
x1 = 0.07856	–	2.07915 ± 0.00024
x1 = 0.08334	750.666 ± 0.26	–
x1 = 0.08846	–	2.08773 ± 0.00025
x1 = 0.1051	–	2.10262 ± 0.00025
x1 = 0.1069	752.273 ± 0.26	–

CCCCCCCCCCCC [dodecane]
Conditions	mass density [kg/m3]
[1]	745.435 ± 0.3

CCCCCCCCCCCC [dodecane] + CCCCCO
Conditions	mass density [kg/m3]	relative permittivity
[2], x2 = 0.00199	745.463 ± 0.26	–
[2], x2 = 0.00476	745.503 ± 0.26	–
[2], x2 = 0.00753	745.546 ± 0.26	–
[2], x2 = 0.01643	745.714 ± 0.26	–
[2], x2 = 0.02691	745.951 ± 0.26	–
[2], x2 = 0.03525	746.159 ± 0.26	–
[2], x2 = 0.05055	746.571 ± 0.26	–
[2], x2 = 0.06514	746.983 ± 0.26	–
[2], x2 = 0.08115	747.444 ± 0.26	–
[2], x2 = 0.09931	747.979 ± 0.26	–
[3], x2 = 0.000482	–	2.00767 ± 0.00035
[3], x2 = 0.001089	–	2.00844 ± 0.00035
[3], x2 = 0.001796	–	2.00932 ± 0.00035
[3], x2 = 0.002589	–	2.01032 ± 0.00035
[3], x2 = 0.00344	–	2.0114 ± 0.00036
[3], x2 = 0.004549	–	2.0128 ± 0.00035
[3], x2 = 0.005875	–	2.01448 ± 0.00035
[3], x2 = 0.007295	–	2.01623 ± 0.00034
[3], x2 = 0.009216	–	2.0185 ± 0.00032
[3], x2 = 0.01162	–	2.02114 ± 0.0003
[3], x2 = 0.0141	–	2.02365 ± 0.00027
[3], x2 = 0.01688	–	2.02629 ± 0.00026
[3], x2 = 0.0211	–	2.03003 ± 0.00024
[3], x2 = 0.02571	–	2.03388 ± 0.00023
[3], x2 = 0.03208	–	2.03903 ± 0.00022
[3], x2 = 0.03962	–	2.045 ± 0.00022
[3], x2 = 0.04963	–	2.05298 ± 0.00023
[3], x2 = 0.05931	–	2.0609 ± 0.00023
[3], x2 = 0.07029	–	2.07011 ± 0.00024
[3], x2 = 0.08177	–	2.08023 ± 0.00025
[3], x2 = 0.09402	–	2.09162 ± 0.00027
[3], x2 = 0.1068	–	2.10429 ± 0.00028

CCCCCCCCCCCC [dodecane] + CCCCO
Conditions	mass density [kg/m3]	relative permittivity
[2], x2 = 0.00247	745.45 ± 0.26	–
[2], x2 = 0.00337	745.455 ± 0.26	–
[2], x2 = 0.00504	745.466 ± 0.26	–
[2], x2 = 0.0089	745.497 ± 0.26	–
[2], x2 = 0.01274	745.535 ± 0.26	–
[2], x2 = 0.01568	745.569 ± 0.26	–
[2], x2 = 0.02553	745.703 ± 0.26	–
[2], x2 = 0.04126	745.979 ± 0.26	–
[2], x2 = 0.06044	746.372 ± 0.26	–
[2], x2 = 0.07754	746.736 ± 0.26	–
[2], x2 = 0.1034	747.278 ± 0.26	–
[3], x2 = 0.000394	–	2.00775 ± 0.00034
[3], x2 = 0.001092	–	2.00861 ± 0.00035
[3], x2 = 0.001852	–	2.00955 ± 0.00035
[3], x2 = 0.002663	–	2.01056 ± 0.00035
[3], x2 = 0.003575	–	2.01169 ± 0.00035
[3], x2 = 0.004582	–	2.01295 ± 0.00035
[3], x2 = 0.005742	–	2.01438 ± 0.00034
[3], x2 = 0.007082	–	2.016 ± 0.00033
[3], x2 = 0.008478	–	2.01762 ± 0.00032
[3], x2 = 0.009996	–	2.0193 ± 0.0003
[3], x2 = 0.01196	–	2.02134 ± 0.00028
[3], x2 = 0.01472	–	2.02405 ± 0.00027
[3], x2 = 0.01783	–	2.02693 ± 0.00025
[3], x2 = 0.02067	–	2.02939 ± 0.00024
[3], x2 = 0.0262	–	2.03399 ± 0.00023
[3], x2 = 0.03349	–	2.03984 ± 0.00022
[3], x2 = 0.04201	–	2.04663 ± 0.00022
[3], x2 = 0.05197	–	2.05466 ± 0.00023
[3], x2 = 0.06201	–	2.06298 ± 0.00024
[3], x2 = 0.07269	–	2.07228 ± 0.00025
[3], x2 = 0.08613	–	2.08475 ± 0.00027
[3], x2 = 0.09876	–	2.09732 ± 0.00028

CCCCCCCCCCCC [dodecane] + CCCO
Conditions	mass density [kg/m3]	relative permittivity
[2], x2 = 0.00273	745.43 ± 0.26	–
[2], x2 = 0.00429	745.426 ± 0.26	–
[2], x2 = 0.007	745.424 ± 0.26	–
[2], x2 = 0.01162	745.429 ± 0.26	–
[2], x2 = 0.0181	745.456 ± 0.26	–
[2], x2 = 0.0248	745.504 ± 0.26	–
[2], x2 = 0.04304	745.689 ± 0.26	–
[2], x2 = 0.06062	745.916 ± 0.26	–
[2], x2 = 0.07866	746.164 ± 0.26	–
[2], x2 = 0.1025	746.495 ± 0.26	–
[3], x2 = 0.001113	–	2.00841 ± 0.00034
[3], x2 = 0.001805	–	2.00926 ± 0.00034
[3], x2 = 0.00262	–	2.01026 ± 0.00035
[3], x2 = 0.003582	–	2.01146 ± 0.00035
[3], x2 = 0.004766	–	2.01292 ± 0.00034
[3], x2 = 0.006045	–	2.01449 ± 0.00034
[3], x2 = 0.00741	–	2.01613 ± 0.00033
[3], x2 = 0.00918	–	2.01815 ± 0.00031
[3], x2 = 0.01131	–	2.0204 ± 0.00028
[3], x2 = 0.01408	–	2.02313 ± 0.00026
[3], x2 = 0.01818	–	2.02685 ± 0.00024
[3], x2 = 0.0234	–	2.03119 ± 0.00023
[3], x2 = 0.02953	–	2.03612 ± 0.00022
[3], x2 = 0.03486	–	2.04033 ± 0.00022
[3], x2 = 0.04243	–	2.04635 ± 0.00022
[3], x2 = 0.05033	–	2.05272 ± 0.00023
[3], x2 = 0.06022	–	2.06108 ± 0.00024
[3], x2 = 0.07048	–	2.07019 ± 0.00026
[3], x2 = 0.08292	–	2.08206 ± 0.00028
[3], x2 = 0.09516	–	2.09474 ± 0.00031
[3], x2 = 0.11	–	2.11157 ± 0.00032

CCCCCCCCCCCC [dodecane] + CCO
Conditions	mass density [kg/m3]	relative permittivity
[2], x2 = 0.00284	745.404 ± 0.26	–
[2], x2 = 0.0035	745.397 ± 0.26	–
[2], x2 = 0.00482	745.386 ± 0.26	–
[2], x2 = 0.0076	745.363 ± 0.26	–
[2], x2 = 0.01169	745.338 ± 0.26	–
[2], x2 = 0.01342	745.329 ± 0.26	–
[2], x2 = 0.0189	745.313 ± 0.26	–
[2], x2 = 0.02678	745.305 ± 0.26	–
[2], x2 = 0.04127	745.348 ± 0.26	–
[2], x2 = 0.06055	745.432 ± 0.26	–
[2], x2 = 0.08084	745.514 ± 0.26	–
[2], x2 = 0.09645	745.601 ± 0.26	–
[3], x2 = 0.000779	–	2.00812 ± 0.00035
[3], x2 = 0.001608	–	2.00915 ± 0.00035
[3], x2 = 0.002571	–	2.01035 ± 0.00035
[3], x2 = 0.003578	–	2.0116 ± 0.00035
[3], x2 = 0.004642	–	2.01293 ± 0.00034
[3], x2 = 0.005982	–	2.01453 ± 0.00033
[3], x2 = 0.007701	–	2.01653 ± 0.00032
[3], x2 = 0.009387	–	2.0184 ± 0.0003
[3], x2 = 0.01111	–	2.02022 ± 0.00028
[3], x2 = 0.01308	–	2.02209 ± 0.00026
[3], x2 = 0.01589	–	2.02461 ± 0.00024
[3], x2 = 0.02008	–	2.02815 ± 0.00023
[3], x2 = 0.02502	–	2.03214 ± 0.00022
[3], x2 = 0.03098	–	2.03689 ± 0.00022
[3], x2 = 0.03829	–	2.04274 ± 0.00023
[3], x2 = 0.04601	–	2.04907 ± 0.00024
[3], x2 = 0.055	–	2.05682 ± 0.00025
[3], x2 = 0.06553	–	2.06649 ± 0.00027
[3], x2 = 0.07632	–	2.07716 ± 0.00029
[3], x2 = 0.08814	–	2.08986 ± 0.00032
[3], x2 = 0.1017	–	2.10596 ± 0.00033
